Usually AUC(0-t) stands for the area under the concentration-time curve up to a stated or last time point. A lower AUC(0-t) goes with less exposure. The Cmax is the maximum level reached in the sampled fluid or tissue. As a reminder, the MRT is the average time that molecules of a dose stay in the body. As a reminder, the half-life is the time in which the quantity being followed falls by half.

≈ marks a conversion by molar mass, not a printed value.

This note sets out measurements from patent EP1215202A1, “Intermediates for the preparation of possibly substituted 8-cyano-1-cyclopropyl-7-(2,8-diazabicyclo-(4.3.0)-nonan-8-yl)-6-fluoro-1,4-dihydro-4-oxo-3-quinolin carboxylic acids and their derivatives” (BAYER AG, priority 1996, dated 1997).

The subject of data set [1] is Fusobacterium necrophorum Ao 9620. Put plainly: MIC (MHK), agar serial dilution on Iso-Sensitest agar. It is filed as cell-based. The conditions noted are these: AO9620, Stamm Ao 9620, 37°C, read after ca. 20 h, read-out: MHK-Werte.
Data set [2] has as its system Mycoplasma iowae M 95144. Put plainly: MIC (MHK), agar serial dilution, mycoplasma read microscopically. It counts as cell-based. The following applies: Malacoplasma iowae, M95144, Stamm M 95144, read microscopically after 5 to 7 days, read-out: MHK-Werte.
Data set [3] relates to Clostridium perfringens Cl 9606. Put plainly: microbe, parasite or virus in culture. It is filed as cell-based. The conditions noted are these: CL9606, 20 h, read-out: MHK-Werte.
The test system of data set [4] is Pseudomonas aeruginosa P 9503. Kind of data set: MIC (MHK), agar serial dilution on Iso-Sensitest agar. It counts as cell-based. The conditions noted are these: P9503, Stamm P 9503, 37°C, read after ca. 20 h, read-out: MHK-Werte.
In data set [5] the test system is Actinomyces pyogenes Am 9602. The description is as above. It counts as cell-based. The following applies: Trueperella pyogenes, AM9602, Stamm Am 9602, 37°C, read after ca. 20 h, read-out: MHK-Werte.
Data set [6] is described as follows: in vivo. Set-up: species or system Hunde (Beagle). The following applies: dog, 5 mg/kg. Here is the method: Die verbesserten pharmakokinetischen Eigenschaften der erfindungsgemäßen Substanz aus […] Enrofloxacin in einer Serumkinetik-Studie an Hunden gezeigt werden. Die Substanzen wurden in einer Dosierung von 5 mg/kg Körpergewicht an jeweils 6 Hunden […] Beagle geprüft. Dabei […].), intramuskulär (i. m.) und oral in […] Cross-Over-Anordnung zur Anwendung. Bei allen Applikationsarten konnte gezeigt werden, dass mit der erfindungsgemäßen Substanz aus […]1/2) und […] und somit eine größere Substanzmenge im Organismus zur […] unter der Serumspiegelkurve, AUC0-24).

In data set [7] the test system is Streptococcus agalactiae Scc 9549. Kind of data set: MIC (MHK), agar serial dilution on Iso-Sensitest agar. It is filed as cell-based. The following applies: SCC9549, Stamm Scc 9549, 37°C, read after ca. 20 h, read-out: MHK-Werte.
Data set [8] concerns Salmonella spp. S 9659. The description is as above. It is filed as cell-based. The conditions noted are these: SPP.S9659, Stamm S 9659, 37°C, read after ca. 20 h, read-out: MHK-Werte. The source says: (§1) Die minimalen Hemmkonzentrationen (MHK) der erfindungsgemäßen Verbindungen wurden per Reihenverdünnungsverfahren auf Iso-Sensitest Agar (Oxoid) bestimmt. Für jede Prüfsubstanz wurde eine Reihe von Agarplatten hergestellt, die bei jeweils doppelter Verdünnung abfallende Konzentrationen des Wirkstoffs enthielten. Die Agarplatten wurden mit einem Multipoint-Inokulator (Denley) beimpft. Zum Beimpfen wurden Übernachtkulturen der Erreger verwandt, die zuvor so verdünnt wurden, dass jeder Impfpunkt ca. 10^4 koloniebildende Partikel enthielt. Die beimpften Agarplatten wurden bei 37°C bebrütet, und das Keimwachstum wurde nach ca. 20 Stunden abgelesen. Der MHK-Wert (µg/ml) gibt die niedrigste Wirkstoffkonzentration an, bei der mit bloßem Auge kein Wachstum zu erkennen war. Die Erfassung der MHK-Werte für Mycoplasmen erfolgte mikroskopisch nach einer Inkubationszeit von 5 bis 7 Tagen.
(§2) In der nachstehenden Tabelle sind die MHK-Werte einer der erfindungsgemäßen Verbindungen im Vergleich zu Enrofloxacin als Referenzverbindung aufgeführt.

For data set [9], the system named is Streptococcus suis Scc 9593. Described as above. It is filed as cell-based. The conditions noted are these: SCC9593, Stamm Scc 9593, 37°C, read after ca. 20 h, read-out: MHK-Werte.
Data set [10] relates to Actinobacillus pleuropneumoniae App 06/94. The data set is described as above. It is filed as cell-based. The conditions noted are these: APP06/94, Stamm App 06/94, 37°C, read after ca. 20 h, read-out: MHK-Werte.
Data set [11] has as its system Mycoplasma bovis M 9548. Put plainly: MIC (MHK), agar serial dilution, mycoplasma read microscopically. It counts as cell-based. The conditions noted are these: Mycoplasmopsis bovis, M9548, Stamm M 9548, read microscopically after 5 to 7 days, read-out: MHK-Werte.
Excerpt: as §1, with “Der MHK-Wert (µg/ml) gibt die niedrigste Wirkstoffkonzentration an, bei der mit bloßem Auge kein Wachstum zu erkennen war. Die Erfassung der MHK-Werte für Mycoplasmen erfolgte mikroskopisch nach einer Inkubationszeit von 5 bis 7 Tagen.” left out
as §2

The subject of data set [12] is Bordetella bronchiseptica B 9610. Put plainly: MIC (MHK), agar serial dilution on Iso-Sensitest agar. It counts as cell-based. The conditions noted are these: B9610, Stamm B 9610, 37°C, read after ca. 20 h, read-out: MHK-Werte.
Data set [13] deals with E. coli Ec 9658. Described as above. The following applies: Escherichia coli, EC9658, Stamm Ec 9658, 37°C, read after ca. 20 h, read-out: MHK-Werte. It is filed as cell-based.
Data set [14] concerns Mycoplasma hyorhinis M 9557. Put plainly: MIC (MHK), agar serial dilution, mycoplasma read microscopically. It counts as cell-based. The following applies: M9557, Stamm M 9557, read microscopically after 5 to 7 days, read-out: MHK-Werte.

Regarding `N#Cc1c(N2C[C@@H]3CCCN[C@@H]3C2)c(F)cc2c(=O)c(C(=O)O)cn(C3CC3)c12` [Beispiel 1, 8-Cyan-1-cyclopropyl-7-((1S,6S)-2,8-diazabicyclo[4.3.0]nonan-8-yl)-6-fluor-1,4-dihydro-4-oxo-3-chinolincarbonsäure], the MIC in [1] amounted to 0.03 µg/mL (≈ 0.0757 µM); in [2], 0.06 µg/mL (≈ 0.151 µM); in data set [3] it was 0.25 µg/mL (≈ 0.631 µM); in [4], 0.25 µg/mL (≈ 0.631 µM); in data set [5] it was 0.25 µg/mL (≈ 0.631 µM); in data set [7] it was 0.03 µg/mL (≈ 0.0757 µM). The MIC in data set [8] and in data set [9] was 0.06 µg/mL (≈ 0.151 µM) throughout. Besides, the AUC(0-t) at 24 h in data set [6] (im) was 19800 ng·h/mL; in [6] (iv) it was 20000 ng·h/mL; in data set [6] (po), 17400 ng·h/mL. Besides, the results for the Cmax in data set [6] (im) and in [6] (po) were 2400 ng/mL and 1300 ng/mL, respectively. The MRT in data set [6] (im) is 8.5 h; in data set [6] (iv), 11.5 h; in [6] (po) it was 14.7 h. For the same molecule, the half-life in data set [6] (im) is 6.9 h; in data set [6] (iv) it was 10.5 h; in data set [6] (po) it was 9.5 h.
As for `CCN1CCN(c2cc3c(cc2F)c(=O)c(C(=O)O)cn3C2CC2)CC1` [Enrofloxacin], the MIC in data set [1] was determined as 4 µg/mL (≈ 11.1 µM); in [2], 0.5 µg/mL (≈ 1.39 µM); in [10], 0.06 µg/mL (≈ 0.167 µM); in data set [3] it was 4 µg/mL (≈ 11.1 µM); in [11], 0.25 µg/mL (≈ 0.696 µM); in data set [4], 1 µg/mL (≈ 2.78 µM). Also, the MIC in [5] came to 1 µg/mL (≈ 2.78 µM); in data set [12], 0.5 µg/mL (≈ 1.39 µM); in data set [7], 0.5 µg/mL (≈ 1.39 µM); in [8], 0.5 µg/mL (≈ 1.39 µM); in data set [13], 0.03 µg/mL (≈ 0.0835 µM); in data set [9], 0.5 µg/mL (≈ 1.39 µM). The MIC in data set [14] worked out at 0.06 µg/mL (≈ 0.167 µM). Moreover, the figures for the AUC(0-t) at 24 h in [6] (im), in data set [6] (iv) and in data set [6] (po) were 8400 ng·h/mL, 10400 ng·h/mL and 7000 ng·h/mL, respectively. For the same molecule, the figures for the Cmax in [6] (im) and in [6] (po) were 2100 ng/mL and 1000 ng/mL, respectively. The MRT in data set [6] (im) is 3.9 h; in data set [6] (iv), 4.2 h; in data set [6] (po), 7.3 h. Moreover, the half-life in data set [6] (im) is 2.9 h; in data set [6] (iv), 3.7 h; in [6] (po) it was 4.3 h.
